In brackets after ≈: the same amount, converted by molar mass.
Legend:
Type in all cases: functional
Staphylococcus aureus [1] = assay: Antimicrobial activity against methicillin-resistant Staphylococcus aureus CGK2 by Etest method
Staphylococcus aureus [2] = assay: Antimicrobial activity against methicillin-resistant Staphylococcus aureus CGK8 by Etest method
Staphylococcus aureus [3] = assay: Antimicrobial activity against methicillin-resistant Staphylococcus aureus CGK3 by Etest method
Staphylococcus aureus [4] = assay: Antimicrobial activity against methicillin-resistant Staphylococcus aureus CGK6 by Etest method
Staphylococcus aureus [5] = assay: Antimicrobial activity against methicillin-resistant Staphylococcus aureus CGK5 by Etest method
Staphylococcus aureus [6] = assay: Antimicrobial activity against methicillin-resistant Staphylococcus aureus CGK1 by Etest method
Staphylococcus aureus [7] = assay: Antimicrobial activity against methicillin-resistant Staphylococcus aureus CGK7 by Etest method
Staphylococcus aureus [8] = assay: Antimicrobial activity against methicillin-resistant Staphylococcus aureus CGK4 by Etest method

Compound | MIC (Staphylococcus aureus [1]) [µg/mL] | MIC (Staphylococcus aureus [2]) [µg/mL] | MIC (Staphylococcus aureus [3]) [µg/mL] | MIC (Staphylococcus aureus [4]) [µg/mL] | MIC (Staphylococcus aureus [5]) [µg/mL] | MIC (Staphylococcus aureus [6]) [µg/mL] | MIC (Staphylococcus aureus [7]) [µg/mL] | MIC (Staphylococcus aureus [8]) [µg/mL]
CC(=O)N[C@@H]1[C@H](Oc2c3cc4cc2Oc2ccc(cc2Cl)[C@@H](O[C@@H]2O[C@@H](CO)[C@@H](O)[C@H](O)[C@@H]2NC(C)=O)[C@@H]2NC(=O)[C@H](NC(=O)[C@@H]4NC(=O)[C@H]4NC(=O)[C@@H](Cc5ccc(c(Cl)c5)O3)NC(=O)[C@H](N)c3ccc(O)c(c3)Oc3cc(O)cc4c3)c3ccc(O)c(c3)-c3c(O[C@H]4O[C@H](CO)[C@@H](O)[C@@H](O)[C@@H]4O)cc(O)cc3[C@@H](C(=O)O)NC2=O)O[C@@H](CO)[C@@H](O)[C@@H]1O | 1.5 (≈ 0.849 µM) | 2 (≈ 1.13 µM) | 1.5 (≈ 0.849 µM) | 2 (≈ 1.13 µM) | 2 (≈ 1.13 µM) | 1 (≈ 0.566 µM) | 3 (≈ 1.7 µM) | 1 (≈ 0.566 µM)
CCCCCCCCCC(=O)N[C@@H](Cc1c[nH]c2ccccc12)C(=O)N[C@H](CC(N)=O)C(=O)N[C@@H](CC(=O)O)C(=O)N[C@@H]1C(=O)NCC(=O)N[C@@H](CCCN)C(=O)N[C@@H](CC(=O)O)C(=O)N[C@H](C)C(=O)N[C@@H](CC(=O)O)C(=O)NCC(=O)N[C@H](CO)C(=O)N[C@@H]([C@H](C)CC(=O)O)C(=O)N[C@@H](CC(=O)c2ccccc2N)C(=O)O[C@@H]1C | 0.75 (≈ 0.463 µM) | 4 (≈ 2.47 µM) | 0.75 (≈ 0.463 µM) | 4 (≈ 2.47 µM) | 0.75 (≈ 0.463 µM) | 0.5 (≈ 0.309 µM) | 4 (≈ 2.47 µM) | 0.38 (≈ 0.234 µM)
CC(=O)NC[C@H]1CN(c2ccc(N3CCOCC3)c(F)c2)C(=O)O1 [LINEZOLID] | – | 1.5 (≈ 4.45 µM) | – | 1 (≈ 2.96 µM) | – | – | – | –
Cc1onc(-c2ccccc2)c1C(=O)N[C@@H]1C(=O)N2[C@@H]1SC(C)(C)[C@@H]2C(=O)O [OXACILLIN] | > 256 | 1 (≈ 2.49 µM) | > 256 | 1.5 (≈ 3.74 µM) | > 256 | 32 (≈ 79.7 µM) | 3 (≈ 7.47 µM) | 16 (≈ 39.9 µM)
CN[C@H](CC(C)C)C(=O)N[C@H]1C(=O)N[C@@H](CC(N)=O)C(=O)N[C@H]2C(=O)N[C@H]3C(=O)N[C@H](C(=O)N[C@H](C(=O)O)c4cc(O)cc(O)c4-c4cc3ccc4O)[C@H](O)c3ccc(c(Cl)c3)Oc3cc2cc(c3O[C@@H]2O[C@H](CO)[C@@H](O)[C@H](O)[C@H]2O[C@H]2C[C@](C)(N)[C@H](O)[C@H](C)O2)Oc2ccc(cc2Cl)[C@H]1O [VANCOMYCIN] | 1.5 (≈ 1.04 µM) | – | – | – | – | 1.5 (≈ 1.04 µM) | 3 (≈ 2.07 µM) | 1.5 (≈ 1.04 µM)

Reference: ChEMBL document CHEMBL1649320, “Development of daptomycin nonsusceptibility with heterogeneous vancomycin-intermediate resistance and oxacillin susceptibility in methicillin-resistant Staphylococcus aureus during high-dose daptomycin treatment” (2010)
